The values that follow come from US9603899B2, “PDGF induced cell homing” (The Trustees of Columbia University in the City of New York, priority 2010, dated 2017).

Entries after “also recorded” stand apart in the source; their conditions may differ.

Experiment [1] relates to alveolar stem/progenitor cells. To be noted: 15 μM; chemically defined medium, calcein AM label.
Experiment [2] has as its system alveolar stem/progenitor cells. The experiment in a line: Transwell migration assay. It is filed as cell-based, human. Conditions: for migration / recruitment of alveolar stem/progenitor cells: negative control serum-free medium, positive control DMEM with 15% FBS.
Protocol: Transwell migration assay was performed to determine PDGF's ability to recruit alveolar stem/progenitor cells in a dose-response manner.

For `C[S+]([O-])CCCCN=C=S` (stereo not shown) [sulforaphane], the capillary tubular formation result in experiment [1] is on record as “blocked”.

Turning to “PDGF-AA: PDGF isoform composed of two A chains”, in experiment [2] (Transwell migration), the “migration / recruitment of alveolar stem/progenitor cells” value is on record as “resulted in cell migration”.

As for “PDGF-AB: PDGF isoform composed of one A and one B chain”, in experiment [2] (Transwell migration), the “migration / recruitment of alveolar stem/progenitor cells” value was “resulted in cell migration”.

On to “PDGF-BB: PDGF isoform composed of two B chains”, for which the “chemoattractant efficacy compared among PDGF isoforms” value in experiment [2] (Transwell migration, compared with other PDGF isoforms and positive control 15% FBS) is given as “most potent chemoattractant among all PDGF isoforms; also recorded: most robust efficacy, which was equal to positive control group with 15% fetal bovine serum; also recorded: higher rates of cell migration”. The “migration / recruitment of alveolar stem/progenitor cells” value in experiment [2] (Transwell migration) is “induces robust, dose-dependent migration; also recorded: resulted in cell migration”.

platelet-derived growth factor [PDGF]: the “migration / recruitment of alveolar stem/progenitor cells” value in experiment [2] (Transwell migration) is recorded as “induces robust, dose-dependent migration; also recorded: cell migration was shown; also recorded: induced dose-dependent migration”. Besides, the “PDGF concentration at which highest cell migration was observed” value in experiment [2] (tested at 10 ng/ml, 25 ng/ml and 50 ng/ml) was 50 ng/mL.
